Measurements: US20250206757A1 (GASHERBRUM BIO, INC., priority 2022, published 2025)

biological target: GLP-1 Receptor (Homo sapiens, UniProt P43220); assay: GLP-1R agonist cAMP stimulation assay (HEK293/GLP1R/CRE-LUC cells, HTRF cAMP dynamic 2 kit); assay type: cell-based; settings: HEK293/CRE-Luc cell line stably expressing the GLP-1 Receptor; 30 min incubation at 37° C.
Procedure: Activation of GLP-1 receptor is known to stimulate cyclic AMP (cAMP) production in cells which indicates primary coupling to the Gas subunit of the G protein heterotrimeric complex.
To optimize functional activity directed toward Gas coupling, a HEK293/CRE-Luc cell line developed by HDB stably expressing the GLP-1 Receptor was used. 200× concentration of compound working solutions were prepared (Agilent Technologies Bravo) with 1/2 log serial dilution in 384-well Echo LDV plate (Labcyte, Cat #LP-0200). 50 nL/well 200× concentration of compound working solutions were moved to 384-well white low volume plate (Greiner, Cat #784075) using Labcyte ECHO550. 1×10^5 cells/mL HEK293/GLP1R/CRE-LUC (HD Biosciences) cell suspensions prepared with assay buffer [DPBS containing 0.5 mM IBMX (Sigma, Cat #15879) and 0.10% BSA (GENVIEW, Cat #FA016-100g)], 10 μL cell suspensions were added to each well of previous generated assay plate which already contains 50 nL compound at 200× concentration using ThermoFisher Multidrop Combi (1000 cells/well). Seal the plate and incubate at 37° C. with 5% CO2 for 30 min.
After incubation the cAMP assay signal was generated using cAMP dynamic 2 Kit (Cisbio). 5 μL cAMP-d2 working solution was added to each well, followed with 5 μL Anti-cAMP antibody-cryptate working solution added to each well using ThermoFisher Multidrop Combi. Incubate at room temperature for 1 hour protected from light. Read the fluorescence at 665 and 615 nm with Reader PerkinElmer EnVision.

Chain of GLP-1 Receptor (P43220 24-463): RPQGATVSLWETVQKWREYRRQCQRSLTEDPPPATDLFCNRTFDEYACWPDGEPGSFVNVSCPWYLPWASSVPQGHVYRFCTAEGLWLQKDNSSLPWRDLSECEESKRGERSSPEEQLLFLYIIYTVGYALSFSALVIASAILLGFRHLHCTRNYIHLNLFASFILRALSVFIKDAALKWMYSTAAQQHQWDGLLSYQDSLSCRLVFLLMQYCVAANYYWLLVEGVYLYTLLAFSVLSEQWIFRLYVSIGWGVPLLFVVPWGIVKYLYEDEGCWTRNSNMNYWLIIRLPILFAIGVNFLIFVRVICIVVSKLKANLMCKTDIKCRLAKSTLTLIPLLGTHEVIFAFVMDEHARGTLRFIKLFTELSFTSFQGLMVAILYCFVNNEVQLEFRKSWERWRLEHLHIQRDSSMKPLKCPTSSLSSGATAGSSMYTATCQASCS

`Cc1cc2c(nc1OCc1c(F)cc(Cl)cc1F)CN(Cc1nc3cc(-c4noc(=O)[nH]4)ccc3n1C[C@@H]1CCO1)CC2` [Compound 37, 3-[2-({2-[(4-chloro-2,6-difluorophenyl)methoxy]-3-methyl-5,6,7,8-tetrahydro-1,7-naphthyridin-7-yl}methyl)-1-{[(2S)-oxetan-2-yl]methyl}-1H-1,3-benzodiazol-5-yl]-4,5-dihydro-1,2,4-oxadiazol-5-one] and `Cc1cc2c(nc1OCc1c(F)cc(Cl)cc1F)CN(Cc1nc3nc(-c4noc(=O)[nH]4)ccc3n1C[C@@H]1CCO1)CC2` [Compound 50, 3-[2-({2-[(4-chloro-2,6-difluorophenyl)methoxy]-3-methyl-5,6,7,8-tetrahydro-1,7-naphthyridin-7-yl}methyl)-1-{1[(2S)-oxetan-2-yl]methyl}-1H-imidazo[4,5-b]pyridin-5-yl]-4,5-dihydro-1,2,4-oxadiazol-5-one] cannot be ordered by EC50: < 1 nM for the first, < 1 nM for the second.

Compared with `O=c1[nH]c(-c2cc3nc(CN4CCc5cc(C(F)(F)F)c(OCc6ccc(Cl)cc6F)nc5C4)n(C[C@@H]4CCO4)c3cc2F)no1` [Compound 38, 3-[2-({2-[(4-chloro-2-fluorophenyl)methoxy]-3-(trifluoromethyl)-5,6,7,8-tetrahydro-1,7-naphthyridin-7-yl}methyl)-6-fluoro-1-{[(2S)-oxetan-2-yl]methyl}-1H-1,3-benzodiazol-5-yl]-4,5-dihydro-1,2,4-oxadiazol-5-one], `O=c1[nH]c(-c2ccc3c(nc(CN4CCc5cc(C(F)(F)F)c(OCc6ccc(Cl)cc6F)nc5C4)n3C[C@@H]3CCO3)c2F)no1` [Compound 47, 3-[2-({2-[(4-chloro-2-fluorophenyl)methoxy]-3-(trifluoromethyl)-5,6,7,8-tetrahydro-1,7-naphthyridin-7-yl}methyl)-4-fluoro-1-{[(2S)-oxetan-2-yl]methyl}-1H-1,3-benzodiazol-5-yl]-4,5-dihydro-1,2,4-oxadiazol-5-one] is lower in EC50: 1 to 300 nM for the first, < 1 nM for the second. The second is the more potent here.

`Fc1cc(Cl)cc(F)c1COc1nc2c(cc1C(F)(F)F)CCN(Cc1nc3cc(-c4nnc(C(F)(F)F)[nH]4)nnc3n1C[C@@H]1CCO1)C2` [Compound 39, 2-[(4-chloro-2,6-difluorophenyl)methoxy]-7-[(7-{[(2S)-oxetan-2-yl]methyl}-3-[5-(trifluoromethyl)-4H-1,2,4-triazol-3-yl]-7H-imidazo[4,5-c]pyridazin-6-yl)methyl]-3-(trifluoromethyl)-5,6,7,8-tetrahydro-1,7-naphthyridine] and `NC(=O)c1nnc(-c2cc3nc(CN4CCc5cc(C(F)(F)F)c(OCc6c(F)cc(Cl)cc6F)nc5C4)n(C[C@@H]4CCO4)c3cn2)[nH]1` [Compound 44, 5-[2-({2-[(4-chloro-2,6-difluorophenyl)methoxy]-3-(trifluoromethyl)-5,6,7,8-tetrahydro-1,7-naphthyridin-7-yl}methyl)-3-{[(2S)-oxetan-2-yl]methyl}-3H-imidazo[4,5-c]pyridin-6-yl]-4H-1,2,4-triazole-3-carboxamide] cannot be ordered by EC50: < 1 nM for the first, < 1 nM for the second.

`Cc1cc2c(nc1OCc1c(F)cc(Cl)cc1F)CN(Cc1nc3cc(-c4nnc(C#N)[nH]4)ncc3n1C[C@@H]1CCO1)CC2` [Compound 40, 5-[2-({2-[(4-chloro-2,6-difluorophenyl)methoxy]-3-methyl-5,6,7,8-tetrahydro-1,7-naphthyridin-7-yl}methyl)-3-{[(2S)-oxetan-2-yl]methyl}-3H-imidazo[4,5-c]pyridin-6-yl]-4H-1,2,4-triazole-3-carbonitrile] and `Cc1cc2c(nc1OCc1c(F)cc(Cl)cc1F)CN(Cc1nc3cc(-c4nnc(C#N)[nH]4)cnc3n1C[C@@H]1CCO1)CC2` [Compound 41, 5-[2-({2-[(4-chloro-2,6-difluorophenyl)methoxy]-3-methyl-5,6,7,8-tetrahydro-1,7-naphthyridin-7-yl}methyl)-3-{1[(2S)-oxetan-2-yl]methyl}-3H-imidazo[4,5-b]pyridin-6-yl]-4H-1,2,4-triazole-3-carbonitrile] cannot be ordered by EC50: < 1 nM for the first, < 1 nM for the second.

`N#Cc1nnc(-c2cc3nc(CN4CCc5cc(C(F)(F)F)c(OCc6ccc(Cl)cc6F)nc5C4)n(C[C@@H]4CCO4)c3nn2)[nH]1` [Compound 42, 5-[6-({2-[(4-chloro-2-fluorophenyl)methoxy]-3-(trifluoromethyl)-5,6,7,8-tetrahydro-1,7-naphthyridin-7-yl}methyl)-7-{1[(2S)-oxetan-2-yl]methyl}-7H-imidazo[4,5-c]pyridazin-3-yl]-4H-1,2,4-triazole-3-carbonitrile] and `NC(=O)c1nnc(-c2cc3nc(CN4CCc5cc(C(F)(F)F)c(OCc6ccc(Cl)cc6F)nc5C4)n(C[C@@H]4CCO4)c3cn2)[nH]1` [Compound 43, 5-[2-({2-[(4-chloro-2-fluorophenyl)methoxy]-3-(trifluoromethyl)-5,6,7,8-tetrahydro-1,7-naphthyridin-7-yl}methyl)-3-{[(2S)-oxetan-2-yl]methyl}-3H-imidazo[4,5-c]pyridin-6-yl]-4H-1,2,4-triazole-3-carboxamide] cannot be ordered by EC50: < 1 nM for the first, < 1 nM for the second.

`Cc1ccc(COc2nc3c(cc2C(F)(F)F)CCN(Cc2nc4c(F)c(-c5noc(=O)[nH]5)ccc4n2C[C@@H]2CCO2)C3)c(Cl)c1` [Compound 45] and `O=c1[nH]c(-c2ccc3c(nc(CN4CCc5cc(C(F)(F)F)c(OCc6ccc(Cl)cc6)nc5C4)n3C[C@@H]3CCO3)c2F)no1` [Compound 46, 3-[2-({2-[(4-chlorophenyl)methoxy]-3-(trifluoromethyl)-5,6,7,8-tetrahydro-1,7-naphthyridin-7-yl}methyl)-4-fluoro-1-{[(2S)-oxetan-2-yl]methyl}-1H-1,3-benzodiazol-5-yl]-4,5-dihydro-1,2,4-oxadiazol-5-one] cannot be ordered by EC50: < 1 nM for the first, < 1 nM for the second.

Compared with `O=c1[nH]c(-c2ccc3c(nc(CN4CCc5cc(C(F)(F)F)c(OCc6c(F)cc(Cl)cc6F)nc5C4)n3C[C@@H]3CCO3)c2F)no1` [Compound 48, 3-[2-({2-[(4-chloro-2,6-difluorophenyl)methoxy]-3-(trifluoromethyl)-5,6,7,8-tetrahydro-1,7-naphthyridin-7-yl}methyl)-4-fluoro-1-{[(2S)-oxetan-2-yl]methyl}-1H-1,3-benzodiazol-5-yl]-4,5-dihydro-1,2,4-oxadiazol-5-one], `O=c1[nH]c(-c2ccc3c(n2)nc(CN2CCc4cc(C(F)(F)F)c(OCc5ccc(Cl)cc5F)nc4C2)n3C[C@@H]2CCO2)no1` [Compound 49, 3-[2-({2-[(4-chloro-2-fluorophenyl)methoxy]-3-(trifluoromethyl)-5,6,7,8-tetrahydro-1,7-naphthyridin-7-yl}methyl)-1-{[(2S)-oxetan-2-yl]methyl}-11H-imidazo[4,5-b]pyridin-5-yl]-4,5-dihydro-1,2,4-oxadiazol-5-one] is lower in EC50: 1 to 300 nM for the first, < 1 nM for the second. The second is the more potent here.

`Cc1cc2c(nc1OCc1c(F)cc(Cl)cc1F)CN(Cc1nc3cc(-c4nnc(C(F)(F)F)[nH]4)cnc3n1C[C@@H]1CCO1)CC2` [Compound 51, 2-[(4-chloro-2,6-difluorophenyl)methoxy]-3-methyl-7-[(3-{1[(2S)-oxetan-2-yl]methyl}-6-[5-(trifluoromethyl)-4H-1,2,4-triazol-3-yl]-3H-imidazo[4,5-b]pyridin-2-yl)methyl]-5,6,7,8-tetrahydro-1,7-naphthyridine] and `Cc1cc2c(nc1OCc1c(F)cc(Cl)cc1F)CN(Cc1nc3cc(-c4nnc(C(F)(F)F)[nH]4)ncc3n1C[C@@H]1CCO1)CC2` [Compound 55, 2-[(4-chloro-2,6-difluorophenyl)methoxy]-3-methyl-7-[(3-{1[(2S)-oxetan-2-yl]methyl}-6-[5-(trifluoromethyl)-4H-1,2,4-triazol-3-yl]-3H-imidazo[4,5-c]pyridin-2-yl)methyl]-5,6,7,8-tetrahydro-1,7-naphthyridine] cannot be ordered by EC50: < 1 nM for the first, < 1 nM for the second.

`Cc1cc2c(nc1OCc1ccc(Cl)cc1F)CN(Cc1nc3cc(-c4nnc(C(F)F)[nH]4)cnc3n1C[C@@H]1CCO1)CC2` [Compound 52, 2-[(4-chloro-2-fluorophenyl)methoxy]-7-({6-[5-(difluoromethyl)-4H-1,2,4-triazol-3-yl]-3-{[(2S)-oxetan-2-yl]methyl}-3H-imidazo[4,5-b]pyridin-2-yl}methyl)-3-methyl-5,6,7,8-tetrahydro-1,7-naphthyridine] and `Cc1cc2c(nc1OCc1c(F)cc(Cl)cc1F)CN(Cc1nc3cc(-c4nnc(C(F)F)[nH]4)cnc3n1C[C@@H]1CCO1)CC2` [Compound 53, 2-[(4-chloro-2,6-difluorophenyl)methoxy]-7-({6-[5-(difluoromethyl)-4H-1,2,4-triazol-3-yl]-3-{1[(2S)-oxetan-2-yl]methyl}-3H-imidazo[4,5-b]pyridin-2-yl}methyl)-3-methyl-5,6,7,8-tetrahydro-1,7-naphthyridine] cannot be ordered by EC50: < 1 nM for the first, < 1 nM for the second.

`FC(F)(F)c1nnc(-c2cc3nc(CN4CCc5cc(C(F)(F)F)c(OCc6ccc(Cl)cc6)nc5C4)n(C[C@@H]4CCO4)c3cn2)[nH]1` [Compound 54, 2-[(4-chlorophenyl)methoxy]-7-[(3-{1[(2S)-oxetan-2-yl]methyl}-6-[5-(trifluoromethyl)-4H-1,2,4-triazol-3-yl]-3H-imidazo[4,5-c]pyridin-2-yl)methyl]-3-(trifluoromethyl)-5,6,7,8-tetrahydro-1,7-naphthyridine] was tested, and the EC50 was < 1 nM.
